The values below are quoted from earlier work in patent publication US11398630B2, “Method of generating energy from a hydrazide containing anode fuel, and fuel cell” (priority 2019, dated 2022).

Where two headings read alike, the source gives them in different places.

The conditions of data set [1]: ambient conditions.

In the case of `COC` [Dimethyl ether], in the data set with rat (oral, rat), the Toxicity-LD50 oral rat was >5,000 mg/kg.
As to `B` [Borohydride], in the data set with rat (oral, rat), the Toxicity-LD50 oral rat is given as 160 mg/kg.
On to `OCC(O)CO` [Glycerol], for which the Toxicity-LD50 oral rat with rat (oral, rat) is >5,000 mg/kg.
As to `CO` [Methanol], the Toxicity-LD50 oral rat in the data set with rat (oral, rat) was >5,000 mg/kg.
On to `CCO` [Ethanol], for which the Toxicity-LD50 oral rat in the data set on rat (rat, in vivo, po) is reported as >5,000 mg/kg.
Consider `NNC(=O)NN` [Carbohydrazide, carbohydrazide], for which, in data set [1], the miscibility with water result is given as “^aUnder ambient conditions, carbohydrazide is a solid, but it is completely miscible with water”. Also, the toxicity in words result in the data set with rat (compared with hydrazine) was “nontoxic”. Moreover, the Toxicity-LD50 oral rat in the data set on rat (oral, rat) was >5,000 mg/kg. The LD50 in the data set with rat (rat, printed as mg/kg-rat, route not given) is on record as > 5,000 mg/kg.
